What was measured:
[1] = Equivalence point of anionic dye added to organoclay (water phase begins to turn a weak color); assay type: physicochemical
Excerpt: The objective of the present Example was not only to determine the equivalence points at a fixed clay:quat ratio for the four anionic dyes listed above, but also to determine the effects that varying the clay:quat ratio had on the dye equivalence. The equivalence point for each anionic dye was recognized as the moment when the water phase of the anionic dye/organoclay composition began to turn a weak color. In other words, the equivalence point for each dye indicated the point at which the anionic dye would bleed or fail to be dispersible when the dye/organoclay composition is placed in an aqueous environment. This equivalence point, then, also indicates the point at which the weak bonding sites on the clay have been satisfied.
Determination of the equivalence point for the four anionic dyes began with the preparation of the organoclay and the subsequent addition of the dye to form the anionic dye/organoclay compositions. The organoclay, having a clay:quat ratio of 1.0:0.77, was prepared by first heating 150 grams of clay slurry (wherein the clay slurry comprises 3.24 grams of bentonite clay and thus comprises 2.16% solids) on a hot plate to approximately 65° C. Simultaneously, 2.495 grams of quat were dissolved in hot water. The quat used in this Example was Adogen 442, and the solution contained a quat:water ratio of 1:20. The quat solution was placed on the same hot plate and heated to 65° C., while being stirred to aid in the dissolution of the quat.
The bentonite clay slurry was added to a Waring blender and was allowed to mix under high speed agitation (speed 6) for about 1 minute. The quat solution was then added slowly to the clay slurry and was allowed to react for approximately 25-30 minutes. After this time, the blender was stopped for a few seconds to ensure adequate floccing.
The process described above was repeated using several different clay:quat ratios including 1:0.5 and 1:0.6 (less quat than the experiment described above) and 1:0.9 (an excess of quat with respect to the experiment described above).

[2] = Test-tube determination of anionic character: dye mixed with organoclay, clean clay or quat in water, centrifuged, judged visually; assay type: physicochemical; conditions: for Ionic character of the dye concluded from the test tubes: conclusion from Table 1 observations
Experimental: Thus, the molecule or ion can be tested in order to determine whether it has an anionic character (and thus can undergo the present method) or a cationic character or a neutral character. In testing certain molecules or ions, the procedure described below was employed.
Using Jarocol Straw Yellow dye as a representative example, four 1 mg samples of the dye were weighed and placed in 4 test tubes.
Subsequently, 10 mL of water was added to each of the four test tubes, and all of the samples were mixed well for 30 seconds. The samples from each of the test tubes were then centrifuged for 15 minutes in a laboratory scale centrifuge.
The analysis herein was performed visually, since the six samples tested were dyes. […] For example, for a non-dye sample, the clay may be separated from the water, both parts may be taken to dryness, and the IR spectrum of each may be recorded.

[3] = Clay:Quat Ratio of 1:0.77, 3.24 g bentonite clay, quat Adogen 442

| Compound | Equivalence Point [1, 3] | Ionic character of the dye concluded from the test tubes [2] | other results |
| --- | --- | --- | --- |
| D&C Green No. 5 | 0.4853 grams | – | – |
| O=C(O)c1nn(-c2ccc(S(=O)(=O)O)cc2)c(O)c1N=Nc1ccc(S(=O)(=O)O)cc1 [FD&C Yellow No. 5] | – | anionic in nature | – |
| Cc1ccc(N=Nc2c([O-])c(C(=O)O)cc3ccccc23)c(S(=O)(=O)[O-])c1.[Na+].[Na+] [Lithol Rubine B] | 0.4103 grams | requisite anionic character | Equivalence Point ([1]; Clay:Quat Ratio of 1:0.5): 0.0693 grams; Equivalence Point ([1]; Clay:Quat Ratio of 1:0.6): 0.1471 grams; Color change of dye on incorporation into organoclay ([1]; clay:quat ratios of 1:0.77, 1:0.6 and 1:0.5): color change took place; Test Tube 3 (10 mg Quat) visual observation ([2]; 1 mg sample + 10 mg quat, 10 mL water, mixed 30 seconds, centrifuged 15 minutes): the quat layer was dark red and the water layer was clear; Test Tube 4 (Control, sample only) visual observation ([2]; 1 mg sample only, 10 mL water, mixed 30 seconds, centrifuged 15 minutes): Water was red |
| CN(C)c1ccc2nc3ccc(=[N+](C)C)cc-3sc2c1 [Methylene Blue, reference compound] | – | cationic in nature | – |
| FD&C Blue No. 1 | 0.3750 grams | anionic in nature | – |
